Reference: patent US12268683B2, “Compounds and methods for synergistic activation of M channels” (THE REGENTS OF THE UNIVERSITY OF CALIFORNIA, priority 2018, dated 2025)

Columns and labels:
KCNQ3* = KCNQ3* (Homo sapiens, UniProt O43525, A315T); test: [3H]GABA competition binding to oocytes expressing KCNQ3*; settings: 100 μM, 10 μM 3H-GABA
Experimental: (§1) Each group of oocytes was placed in a round-bottomed, 15-ml falcon tube, washed with ND96, and then resuspended in ND96 containing 10 μM γ-[2,3-^3H(N)]-aminobutyric acid (^3H-GABA) (Perkin Elmer, Waltham, Mass.) at 25-40 Ci/mMol specific activity either alone, or with 100 μM 2FPG or 100 μM 3FMSG, for a 30 minute incubation at room temperature. Oocytes were then washed four times in 16° C. ND96, transferred to individual wells in a 96 well plate and lysed in 0.2% SDS in ND96. Each oocyte lysate was transferred to a scintillation vial containing 5 ml Cytoscint scintillation cocktail fluid (MP Biomedicals, Santa Ana, Calif.). Vials were capped, shaken, and then allowed to sit at room temperature for at least 30 min before scintillation counting in a Beckmann Coulter LS6500 liquid scintillation counter.

KCNQ2 = KCNQ2 (Homo sapiens, UniProt O43526); test: [3H]GABA competition binding to oocytes expressing KCNQ2; settings: 100 μM, 10 μM 3H-GABA
Experimental: as §1

KCNQ1-R243A = KCNQ1-R243A (Homo sapiens, UniProt P51787, R243A); test: TEVC of R243A KCNQ1 channels; assay type: cell-based
Description: (§2) As previously described (12), we generated cRNA transcripts encoding human KCNA1, KCNE1, KCNE2, KCNE3, KCNQ1, KCNQ2, KCNQ3, KCNQ4 or KCNQ5 by in vitro transcription using the T7 polymerase mMessage mMachine kit (Thermo Fisher Scientific), after vector linearization, from cDNA sub-cloned into plasmids incorporating Xenopus laevis β-globin 5′ and 3′ UTRs flanking the coding region to enhance translation and cRNA stability. We quantified cRNA by spectrophotometry. We generated mutant KCNQ2 and KCNQ3 cDNAs by site-directed mutagenesis with a QuikChange kit (Stratagene, San Diego, Calif.) and prepared the cRNAs as above. We injected defolliculated stage V and VI Xenopus laevis oocytes (Ecocyte Bioscience, Austin, Tex. and Xenoocyte, Dexter, Mich., US) with KCNE and/or KCNQ cRNAs (5-20 ng). […]
(§3) We performed TEVC at room temperature using an OC-725C amplifier (Warner Instruments, Hamden, Conn.) and pClamp10 software (Molecular Devices, Sunnyvale, Calif.) 2-5 days after cRNA injection as described in the section above. […] We recorded currents in response to voltage pulses between −120 or −80 mV and +40 mV at 20 mV intervals from a holding potential of −80 mV, to yield current-voltage relationships, current magnitude, and for quantifying activation rate. We analyzed data using Clampfit (Molecular Devices) and Graphpad Prism software (GraphPad, San Diego, Calif., USA); values are stated as mean±SEM. […]

bacteria = settings: read-out: bactericidal activity EC50; cited from earlier work
KCNQ3/KCNQ5 = KCNQ3/KCNQ5 (Homo sapiens, UniProt O43525+Q9NR82); test: TEVC of KCNQ3/KCNQ5 channels; assay type: cell-based; settings: similar potency
Description: as §2, §3

KCNQ1/KCNE2 = KCNQ1/KCNE2 (Homo sapiens, UniProt P51787); test: TEVC of KCNQ1/KCNE2 channels; assay type: cell-based
Description: as §2, §3

KCNQ1-R243A/KCNE1 = KCNQ1-R243A/KCNE1 (Homo sapiens, UniProt P51787, R243A); test: TEVC of R243A KCNQ1/KCNE1 channels; assay type: cell-based
Description: as §2, §3

## CS(=O)(=O)N(CC(=O)O)c1cccc(F)c1 [3FMSG]
KCNQ3*
  competition with [3H]GABA binding to KCNQ3*: able to compete out GABA binding
KCNQ2
  competition with [3H]GABA binding to KCNQ2: able to compete out GABA binding

## CCCCCCCCC/C=C/C=O [(E)-2-dodecenal]
KCNQ1-R243A
  effect of R243A mutation on (E)-2-dodecenal action in KCNQ1: slightly increased (E)-2-dodecenal efficacy
bacteria
  EC50: > 30 µM
KCNQ3/KCNQ5
  efficacy on KCNQ3/KCNQ5, lower than on KCNQ5: ~30%
KCNQ1/KCNE2
  effect on KCNQ1/KCNE2 (in words): minimal effects
KCNQ1-R243A/KCNE1
  effect of R243A mutation on (E)-2-dodecenal action in KCNQ1/KCNE1: reduced (E)-2-dodecenal efficacy twofold
